Publication PMC3530156 (Chemistry & biology, 2012)

Key:
[1] = system: Bacillus subtilis PY79; test: MIC, overnight culture/serial dilution assay; assay type: cell-based; conditions: overnight serial dilution culture, purified compound
[2] = system: B. subtilis BSZ-9 (L11 knockout); conditions: colonies of M1152 + pSETGE1 overlaid with B. subtilis BSZ-9, resistant to 26-membered thiopeptides

GE37468 was tested, and the “MIC B. subtilis” value [1] was 0.016 µg/mL and the “resistance of overlaid strain” value [2] was “Neither BSZ-9 nor B. cereus ATCC 15479 exhibited resistance”.
